Results as given in patent EP2397458A1, “Organic salts and co-crystals of phenylbutyric acid” (Lunamed AG, priority 2010, dated 2011).
Where a name gives a salt, the structure may show the parent alone.

How the values were obtained:
[1] = Aqueous solubility determination (saturated solution, HPLC; pH of saturated solution); format: physicochemical; conditions: for solubility at 24 h: doubly distilled water, after 24 h of equilibration at 25°C; for pH of the corresponding saturated solution: saturated aqueous solution after 24 h at 25°C
Protocol: (§1) For this measurement approximately 1.0 mL of doubly distilled water was added to 18 mg of the substance according Example 1 to be measured. The resulting suspension was equilibrated in a temperature-controlled Eppendorf Thermomixer Comfort shaker for 24 h at 25°C at a shaking rate of 600 rpm. The solid phase was recovered by filter centrifugation (0.10-µm PVDF membrane) and examined by FT-Raman spectroscopy. Concentrations in the filtrate (i.e., saturated solutions) were determined by HPLC (see below). The pH of the saturated solution was determined with a Metrohm 713 pH meter. HPLC: TSP instrument with P4000 pump, AS3000 autosampler, SCM1000 degasser, UV3000 detector, and PC1000 Vers. 4.1 software. Table 4: HPLC method used for solubility determinations.
as §1, with “8:” for “4:”

[2] = DVS / hygroscopy measurement; format: physicochemical; conditions: for hygroscopy: DVS humidity program 50 → 95 → 0 → 50% r.h.
Protocol: For the measurement of hygroscopy of the salt a Projekt Messtechnik Sorptions Prüfsystem SPS 11 - 100n was used. (Hygroscopy of the phenylbutyric acid for comparison was measured with the Surface Measurement Systems DVS-1 ). The salt sample was placed on an aluminium (SPS 11) holder (for phenylbutyric acid on a platinum holder (DVS-1)) on top of a microbalance and allowed to equilibrate for 2 h at 50% r.h. before starting the pre-defined humidity program: • (1)2hat50%r.h. • (2) 50 → 95% r.h. (5%/h); 5 h at 95% r.h. • (3) 95 → 0% r.h. (5%/h); 5 h at 0% r.h. • (4) 0 → 50% r.h. (5%/h); 2 h at 50% r.h.
For the measurement of hygroscopy of the salt a Projekt Messtechnik Sorptions Prüfsystem SPS 11 - 100n was used. (Hygroscopy of the phenylbutyric acid for comparison was measured with the Surface Measurement Systems DVS-1). The salt sample was placed on an aluminium (SPS 11) holder (for phenylbutyric acid on a platinum holder (DVS-1)) on top of a microbalance and allowed to equilibrate for 2 h at 50% r.h. before starting the pre-defined humidity program: • (1)2hat50%r.h. • (2) 50 → 95% r.h. (5%/h); 5 h at 95% r.h. • (3) 95 → 0% r.h. (5%/h); 5 h at 0% r.h. • (4) 0 → 50% r.h. (5%/h); 2 h at 50% r.h. […] However, raising the relative humidity further from 80 to 95% r.h. results in a steep gain of -10 wt.-%. Upon lowering the relative humidity, the mass decreases only slightly (by -2.2 w1.-%) until a relative humidity of -60 % r.h. is reached. Then a steep loss of -10 wt.-% occurs until the mass of the starting material is reached at -45% r.h. […] Upon lowering the relative humidity from 50 to 0% r.h. a mass loss of -0.3 wt.-% is observed, but it is fully reversible. At the end of the cycle the sample had essentially the same mass as the starting material. […] A sesquihydrate of the hemi-benzathine salt (1 :0.5:1.5 phenylbutyrate:benzathine:H2O) has a theoretical water content of 9.5 wt.-%. A reversible hydrate formation occurred during the DVS experiment.

| Compound | solubility at 24 h ([1]; value corresponds to a hydrate of the benzathine salt, not to the anhydrous form) [µg/mL] | pH of the corresponding saturated solution ([1]; hydrate formed and precipitated during equilibration) | gradual mass gain ([2]; DVS, increasing the relative humidity from 50 to 80% r.h.) [wt.-%] | mass loss ([2]; DVS, lowering the relative humidity from 50 to 0% r.h., fully reversible) [wt.-%] | mass decrease ([2]; DVS, lowering the relative humidity from 95% until -60 % r.h. is reached) [w1.-%] | steep loss (mass) ([2]; DVS, lowering the relative humidity from -60 % r.h. until -45% r.h. (mass of starting material reached)) [wt.-%] | steep gain (mass) ([2]; DVS, raising the relative humidity from 80 to 95% r.h.) [wt.-%] | pH of the corresponding saturated solution [1] | solubility at 24 h ([1]; water, solid residue Raman spectrum unchanged) [µg/mL] | hygroscopy [2] | hygroscopy ([2]; listed as 4-Phenylbutyrate-Mono-Benethamine salt) |
| --- | --- | --- | --- | --- | --- | --- | --- | --- | --- | --- | --- |
| O=C(O)CCCc1ccccc1 [Example 2, 4-Phenylbutyrate-Hemi-Benzathine salt] | 1700 | 6.2 | -1.3 | -0.3 | -2.2 | -10 | -10 | – | – | – | – |
| O=C(O)CCCc1ccccc1 [Example 1, 4-Phenylbutyrate-Mono-Benethamine salt] | – | – | – | – | – | – | – | 7.2 | 1900 | not hygroscopic | non-hygroscopic |
